Test [1] has as its system HMC3 human microglia cells. The test can be described thus: Cell viability assay by AO/PI stain. To be noted: for microglia death: 300 ng/mL, 24 hr. In kind it is cell-based. Here is the method: (§1) Human microglial cell line HMC3 (CRL-3304) was purchased from ATCC (American Type Culture Collection). HMC3 cell line was cultured in DMEM medium with 10% FBS, 1% L-glutamine, and 1% penicillin/streptomycin. Cells were maintained in 37° C. incubator at 5% CO2.
(§2) HMC3 cells were resuspended, counted using the LUNA-II Automated Cell Counter, seeded in the 6-well plate (300 K cells/2 mL medium/well), and incubated overnight to allow cells to attach. Cells were treated with TNF-α or IFN-γ at five different concentrations (0, 10, 30, 100, 300 ng/mL) for 24 hr to induce cell activation. The supernatant medium was completely aspirated and 1 mL of fresh DMEM was added to wash the cell layer to remove detached cells and debris. The attached cells were resuspended and washed with PBS. Cells were washed with FACS buffer (2% FBS in PBS) prior to incubation with Zombie Violet Fixable Viability Dye (#423114, Biolegend, 1:500 dilution) and Human Fe Receptor Blocking Solution (#422302, Biolegend, 1:20) diluted in FACS buffer at RT for 10 min in the dark. Cells were then washed with FACS buffer and incubated at RT for 20 min with the following cell-surface antibodies: FITC anti-MHC II (#361706, Biolegend), PerCP/Cy5.5 anti-CD11b (#301328, Biolegend), BV605 anti-CD40 (#334336, Biolegend), PE anti-CD86 (#374206, Biolegend), PE/Cy7 anti-CD163 (#326514, Biolegend), APC anti-CD206 (#321110, Biolegend), and PerCP/Cy5.5 anti-CD14 (#367110, Biolegend). All of the cell-surface antibodies were diluted 1:20 in FACS buffer. Cells were permeabilized using the Transcription Factor Fixation/Permeabilization Buffer Set (#424401, Biolegend). Then cells were incubated with the following intracellular antibodies: APC/Cy7 anti-CD68 (#333822, Biolegend), purified anti-IBA1 (#PA5-27436, Invitrogen), Goat anti-Rabbit-Alexa Fluor 647 (#A21245, Invitrogen), purified anti-GFAP (#644702, Biolegend), and Goat anti-Mouse-Alexa Fluor 488 (#11029, Invitrogen). All of the intracellular antibodies were diluted 1:100 in the Permeabilization buffer (lx). Cells were washed with Permeabilization buffer and fixed in Fixation Buffer (#420801, Biolegend). Flow cytometry was performed using the Attune NxT Acoustic Focusing Cytometer (Thermo Fisher Scientific). Analysis of flow cytometry data was performed via FCS Express 7 (DeNovo Software).
Cell viability was assessed with a LUNA-FL Automated fluorescence cell counter. Viable nucleated cells show green fluorescence and dying nucleated cells show red fluorescence. 18 µL of sample was mixed with 2 μL Acridine Orange/Propidium Iodide (AO/PI) Stain.
(§3) All the data were presented as mean±standard error from at least three times, each done in triplicate. The statistical significance between two groups was determined by Student's t test, whereas the comparisons of multiple groups were carried out by one-way ANOVA, followed by Bonferroni's post-test using GraphPad Prism 7 (GraphPad Software, Inc.). A probability value of * p<0.05 was considered to be significant.

Test [2] has as its system HMC3 human microglia cells. The test can be described thus: MSD U-PLEX cytokine secretion induced by TNF-α. Type of test: cell-based. The arrangement: increase in IL-1β secretion compared to untreated HMC3 cells / increase in IL-6 secretion compared to untreated HMC3 cells / increase in IL-8 secretion compared to untreated HMC3 cells / IFN-γ secretion: dose or concentration left out as unconfirmed. The following applies: for inhibition at 3 µM: Homo sapiens, HMC3. The procedure:
as §1
(§4) HMC3 cells were resuspended, counted using the LUNA-II Automated Cell Counter, seeded in the 6-well plate (400 K cells/2 mL medium/well), and incubated overnight to allow cells to attach. The media and detached cells were removed next day. The cell layer was washed three times in PBS and once in serum- and phenolred-free DMEM (SPFM). […] The conditioned medium was collected and centrifuged at 1,000×RCF (g) for 5 min to pellet detached cells and large debris, which was subsequently passed through a 0.22 μm filter with PVDF membrane to remove smaller debris. Samples of the supernatant medium were put in a CoolRack (#07210041, Fisher Scientific) on dry ice for Snap-freezing and kept at −80° C. until use.
(§5) Meso-scale U-PLEX plates that detect a cytokine panel including IL-1β, IL-2, IL-4, IL-6, IL-8, IL-10, IFN-γ, TNF-α, and a chemokine panel including IP-10/CXCL10, MCP-1/CCL2, MIP-1α/CCL3, MIP-1P/CCL4, Eotaxin/CCL11, were used as per manufacture's protocol. 25 μL of the conditioned medium was used in each well of the MSD plates to detect the analytes. The plates were then analyzed on an MSD QuickPlex SQ120 instrument.
as §3

Test [3] has as its system HMC3 human microglia cells. The test can be described thus: MSD U-PLEX chemokine secretion induced by TNF-α. Type of test: cell-based. The following applies: 0.3 μg/mL TNF-α, 24 hours; for inhibition at 3 µM: Homo sapiens, HMC3. The procedure: as §1, §4, §5, §3
Test [4] has as its system HMC3 human microglia cells. In words: Flow cytometry of microglia activation biomarkers. In kind it is cell-based. To be noted: 300 ng/mL, 24 hr. The procedure:
as §1
as §2, with “Cells were washed with Permeabilization buffer and fixed in Fixation Buffer (#420801, Biolegend). Flow cytometry was performed using the Attune NxT Acoustic Focusing Cytometer (Thermo Fisher Scientific). Analysis of flow cytometry data was performed via FCS Express 7 (DeNovo Software).” left out
For orientation: A flow cytometer gives signals particle by particle.

A further test concerns H5N1 virus. The following applies: after H5N1 virus infection; cited from earlier work.

Where only a bound is given, the exact number is not on record here.

Turning to `O=C(O)c1cc(=O)c2c(OCC(F)COc3cccc4oc(C(=O)O)cc(=O)c34)cccc2o1` [F-cromolyn], in test [1] (0.3 μM, TNF-α 0.3 μg/mL), the “TNF-α induced cell death” value was “significantly reduced cell death”. Further, in test [2] (0.3 μM, TNF-α induced, 24 hr), the IFN-γ concentration entry is reported as “decreased”. In addition, the IL-1β concentration result in test [2] (0.3 μM, TNF-α induced, 24 hr) is “decreased”. The IL-6 concentration result in test [2] (0.3 μM, TNF-α induced, 24 hr) is recorded as “decreased”. In addition, the IL-8 concentration entry in test [2] (0.3 μM, TNF-α induced, 24 hr) is reported as “decreased”. For the same compound, the inhibition at 3 µM in test [2] (TNF-α induced, 24 hr, read-out: inhibition of IFN-γ) was over 50%; in test [2] (TNF-α induced, 24 hr, read-out: inhibition of IL-1β) it was over 50%; in test [2] (TNF-α induced, 24 hr, read-out: inhibition of IL-6), 39.8%; in test [2] (TNF-α induced, 24 hr, read-out: inhibition of IL-8), 27.9%; in test [3] (read-out: inhibition of IP-10 (CXCL10)), over 40%; in test [3] (read-out: inhibition of MCP-1 (CCL2)), over 40%. Also, the inhibition at 3 µM in test [3] (read-out: inhibition of MIP-1α (CCL3)) is 36%; in test [3] (read-out: inhibition of MIP-1β (CCL4)), over 40%. In addition, the “extracellular IP-10 (CXCL10)” value in test [3] (0.3 μM) was “can inhibit”. In test [3] (0.3 μM), the “extracellular MCP-1 (CCL2)” value was “can inhibit”. The “extracellular MIP-1α (CCL3)” value in test [3] (0.3 μM) is “can inhibit”. In addition, the “extracellular MIP-1β (CCL4)” value in test [3] (0.3 μM) was “can inhibit”.

“IFN-γ: recombinant human IFN-γ, used to activate HMC3 microglia”: the microglia death in test [1] was 19.7%. Moreover, in test [4], the “expression of anti-inflammatory microglia biomarkers (CD163 and CD206)” value was “no alteration”; the “expression of inflammatory microglia biomarkers” value is “increased protein expression”.

On to `CN1CCC(=C2c3ccccc3CC(=O)c3sccc32)CC1` [ketotifen], for which the lung injury result with H5N1 virus is given as “improved”.

For the compound TNF-α, the microglia death in test [1] stood at 15.6%. Moreover, in test [1] (TNF-α 0.3 μg/mL), the “cell death, share of the total population” value is “approximately 20%”. Also, in test [2] (24 hours), the IFN-γ secretion result is on record as “caused the previously quiescent cells to secrete IFN-γ”, the “increase in IL-1β secretion compared to untreated HMC3 cells” value was over 177 fold, the “increase in IL-6 secretion compared to untreated HMC3 cells” value was over 177 fold and the “increase in IL-8 secretion compared to untreated HMC3 cells” value was over 177 fold. In test [4], the “expression of inflammatory microglia biomarkers” value was “increases the expression”.

By inhibition is commonly meant the share of the control response that was lost under treatment.

The values above are taken from US12458622B2, “Methods of treatment of coronavirus-induced inflammation conditions” (priority 2020, dated 2025).
